Assay results: PubChem BioAssay (NCI)
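All cell lines were grown in 96-well plates and treated with compound for 48 hours. At the GI50, growth is halved. TGI is the concentration that stops growth completely.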

Experiments:
Experiment in all cases: inhibition of tumour cell growth, NCI panel, 48 h
[1] = system: 786-0 renal
[2] = system: A498 renal
[3] = system: A549 NSCLC
[4] = system: ACHN renal
[5] = system: CAKI-1 renal
[6] = system: CCRF-CEM leukemia
[7] = system: COLO 205 colon
[8] = system: DU-145 prostate
[9] = system: EKVX NSCLC
[10] = system: HCT-116 colon
[11] = system: HCT-15 colon
[12] = system: HL-60(TB) leukemia
[13] = system: HOP-62 NSCLC
[14] = system: HOP-92 NSCLC
[15] = system: HS 578T breast
[16] = system: HT29 colon
[17] = system: IGROV1 ovarian
[18] = system: K-562 leukemia
[19] = system: KM12 colon
[20] = system: M14 melanoma
[21] = system: MALME-3M melanoma
[22] = system: MCF7 breast
[23] = system: MDA-MB-231 breast
[24] = system: MDA-MB-435
[25] = system: MOLT-4 leukemia
[26] = system: NCI-H226 lung
[27] = system: NCI-H23 lung
[28] = system: NCI-H460 lung
[29] = system: NCI-H522 lung
[30] = system: NCI/ADR-RES ovarian
[31] = system: OVCAR-3 ovarian
[32] = system: OVCAR-4 ovarian
[33] = system: OVCAR-5 ovarian
[34] = system: OVCAR-8 ovarian
[35] = system: PC-3 prostate
[36] = system: RPMI-8226 leukemia
[37] = system: RXF 393 renal
[38] = system: SF-268 CNS
[39] = system: SF-295 CNS
[40] = system: SF-539 CNS
[41] = system: SK-MEL-2 melanoma
[42] = system: SK-MEL-28 melanoma
[43] = system: SK-MEL-5 melanoma
[44] = system: SK-OV-3 ovarian
[45] = system: SN12C renal
[46] = system: SNB-19 CNS
[47] = system: SNB-75 CNS
[48] = system: SR leukemia
[49] = system: SW-620 colon
[50] = system: T-47D breast
[51] = system: TK-10 renal
[52] = system: U251 CNS
[53] = system: UACC-257 melanoma
[54] = system: UACC-62 melanoma
[55] = system: UO-31 renal

Molecule CCOc1ccc(-c2nc3ccc(-c4nc5ccc(N6CCN(C)CC6)cc5[nH]4)cc3[nH]2)cc1OCC has a GI50 [1] of 2080 nM, a TGI [1] of 5930 nM and a GI50 [2] of 1510 nM. The TGI [2] was 4580 nM, the GI50 [3] was 8340 nM and the TGI [3] was 28500 nM. It also gave a GI50 [4] of 3480 nM, a TGI [4] of 13900 nM and a GI50 [5] of 2710 nM. The TGI [5] was 17600 nM, the GI50 [6] was 2040 nM and the TGI [6] was 22800 nM. For the same molecule, the GI50 [7] was 322 nM, the TGI [7] was 2000 nM and the GI50 [8] was 2370 nM. It also gave a TGI [8] of 8100 nM, a GI50 [9] of 5060 nM and a TGI [9] greater than 100000 nM. For the same molecule, the GI50 [10] was 529 nM, the TGI [10] was 2720 nM and the GI50 [11] was 15000 nM. It also gave a TGI [11] greater than 100000 nM, a GI50 [12] of 1160 nM and a TGI [12] of 4700 nM. For the same molecule, the GI50 [13] was 2860 nM, the TGI [13] was 7520 nM and the GI50 [14] was 1350 nM. The TGI [14] was 8730 nM, the GI50 [15] was 1740 nM and the TGI [15] was 5460 nM. The GI50 [16] was 2600 nM, the TGI [16] was 12100 nM and the GI50 [17] was 1940 nM. For the same molecule, the TGI [17] was 6200 nM, the GI50 [18] was 778 nM and the TGI [18] was 9010 nM. It also gave a GI50 [19] of 3880 nM, a TGI [19] of 15800 nM and a GI50 [20] of 831 nM. The TGI [20] was 3840 nM, the GI50 [21] was 222 nM and the TGI [21] was 1230 nM. It also gave a GI50 [22] of 498 nM, a TGI [22] of 3050 nM and a GI50 [23] of 2250 nM. For the same molecule, the TGI [23] was 7090 nM, the GI50 [24] was 1010 nM and the TGI [24] was 2380 nM. It also gave a GI50 [25] of 2750 nM, a TGI [25] of 9760 nM and a GI50 [26] of 1170 nM. For the same molecule, the TGI [26] was 4800 nM, the GI50 [27] was 1520 nM and the TGI [27] was 4450 nM. For the same molecule, the GI50 [28] was 3140 nM, the TGI [28] was 10400 nM and the GI50 [29] was 1160 nM. The TGI [29] was 3800 nM, the GI50 [30] was greater than 100000 nM and the TGI [30] was greater than 100000 nM. For the same molecule, the GI50 [31] was 648 nM, the TGI [31] was 2630 nM and the GI50 [32] was 2190 nM. The TGI [32] was 6790 nM, the GI50 [33] was 4370 nM and the TGI [33] was 14200 nM. It also gave a GI50 [34] of 2660 nM, a TGI [34] of 14500 nM and a GI50 [35] of 1420 nM. For the same molecule, the TGI [35] was 10400 nM, the GI50 [36] was 2940 nM and the TGI [36] was 13800 nM. The GI50 [37] was 1140 nM, the TGI [37] was 2490 nM and the GI50 [38] was 1850 nM. For the same molecule, the TGI [38] was 6900 nM, the GI50 [39] was 1980 nM and the TGI [39] was 16100 nM. The GI50 [40] was 1200 nM, the TGI [40] was 2710 nM and the GI50 [41] was 1490 nM. It also gave a TGI [41] of 3270 nM, a GI50 [42] of 701 nM and a TGI [42] of 2180 nM. The GI50 [43] was 1290 nM, the TGI [43] was 3710 nM and the GI50 [44] was 2490 nM. It also gave a TGI [44] of 9410 nM, a GI50 [45] of 1940 nM and a TGI [45] of 10900 nM. For the same molecule, the GI50 [46] was 2000 nM, the TGI [46] was 11100 nM and the GI50 [47] was 1030 nM. It also gave a TGI [47] of 2560 nM, a GI50 [48] of 678 nM and a TGI [48] of 7780 nM. The GI50 [49] was 796 nM, the TGI [49] was 2890 nM and the GI50 [50] was 946 nM. The TGI [50] was 5570 nM, the GI50 [51] was 6220 nM and the TGI [51] was 38900 nM. It also gave a GI50 [52] of 1320 nM, a TGI [52] of 6710 nM and a GI50 [53] of 1330 nM. It also gave a TGI [53] of 4760 nM, a GI50 [54] of 643 nM and a TGI [54] of 2580 nM. The GI50 [55] was 12400 nM and the TGI [55] was 35900 nM.
